# Experimental data: PubChem BioAssay AID192 (DTP/NCI, 2004)
# Where “and” joins values, the source holds several entries; their conditions need not be identical. Equal values may be shown once. Inconclusive results and toxic doses are left out. Peptide text beside a SMILES is read from it. * marks the point of attachment. Trt = c1ccc(C(c2ccccc2)(c2ccccc2)*)cc1; Cbz = O=C(OCc1ccccc1)*; Bn = c1ccc(C*)cc1; βAla = NCCC(=O)O
# Test system: BDF1 mice, B16 melanoma ip, median survival T/C
# Experiment: NCI In Vivo Anticancer Drug Screen. Data for tumor model B16 Melanoma (intraperitoneal) in B6D2F1 (BDF1) mice
# Conditions: endpoint: median survival time, higher = longer survival
# In short: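 Antitumor activity is assessed in mice bearing a transplanted tumor, with survival or tumor size compared against vehicle-dosed controls and expressed as T/C.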
# [1] = dose: 12.5 mg/kg/injection, schedule: Q01DX009 (ip), vehicle: Klucel (hydroxypropylcellulose) (HPC)
# [2] = dose: 100.0 mg/kg/injection, schedule: Q01DX009 (ip), vehicle: Klucel (hydroxypropylcellulose) (HPC)
# [3] = dose: 200.0 mg/kg/injection, schedule: Q01DX009 (ip), vehicle: Klucel (hydroxypropylcellulose) (HPC)
# [4] = dose: 25.0 mg/kg/injection, schedule: Q01DX009 (ip), vehicle: Klucel (hydroxypropylcellulose) (HPC)
# [5] = dose: 50.0 mg/kg/injection, schedule: Q01DX009 (ip), vehicle: Klucel (hydroxypropylcellulose) (HPC)
# [6] = dose: 400.0 mg/kg/injection, schedule: Q01DX009 (ip), vehicle: Klucel (hydroxypropylcellulose) (HPC)
# [7] = dose: 100.0 mg/kg/injection, schedule: Q04DX003 (ip), vehicle: Klucel (hydroxypropylcellulose) (HPC)
# [8] = dose: 200.0 mg/kg/injection, schedule: Q04DX003 (ip), vehicle: Klucel (hydroxypropylcellulose) (HPC)
# [9] = dose: 400.0 mg/kg/injection, schedule: Q04DX003 (ip), vehicle: Klucel (hydroxypropylcellulose) (HPC)
# [10] = dose: 25.0 mg/kg/injection, schedule: Q01DX009 (ip), vehicle: saline with Tween-80
# [11] = dose: 50.0 mg/kg/injection, schedule: Q01DX009 (ip), vehicle: saline with Tween-80
# [12] = dose: 100.0 mg/kg/injection, schedule: Q01DX009 (ip), vehicle: saline
# [13] = dose: 400.0 mg/kg/injection, schedule: Q01DX009 (ip), vehicle: saline
# [14] = dose: 12.0 mg/kg/injection, schedule: Q01DX009 (ip), vehicle: saline with Tween-80
# [15] = dose: 12.5 mg/kg/injection, schedule: Q01DX009 (ip), vehicle: saline with Tween-80
# [16] = dose: 200.0 mg/kg/injection, schedule: Q01DX009 (ip), vehicle: saline with Tween-80
# [17] = dose: 1.25 mg/kg/injection, schedule: Q01DX009 (ip), vehicle: saline
# [18] = dose: 6.25 mg/kg/injection, schedule: Q01DX009 (ip), vehicle: saline
# [19] = dose: 50.0 mg/kg/injection, schedule: Q01DX009 (ip), vehicle: saline
smiles,measurement,setting,value
c1ccc([As+](c2ccccc2)(c2ccccc2)c2ccccc2)cc1,T/C,"dose: 1.87 mg/kg/injection, schedule: Q01DX009 (ip), vehicle: Klucel (hydroxypropylcellulose) (HPC)",122 % of control
same,T/C,"dose: 3.75 mg/kg/injection, schedule: Q01DX009 (ip), vehicle: Klucel (hydroxypropylcellulose) (HPC)",110 % of control
N#CSc1ccc(S(N)(=O)=O)cc1,T/C,"dose: 6.25 mg/kg/injection, schedule: Q01DX009 (ip), vehicle: Klucel (hydroxypropylcellulose) (HPC)",100 % of control
same,T/C,[1],103 % of control
O=C(Nc1ccc(Cl)cc1)Nc1ccccc1Cl,T/C,"dose: 4.5 mg/kg/injection, schedule: Q01DX009 (ip), vehicle: gum acacia",102 % of control
same,T/C,"dose: 9.0 mg/kg/injection, schedule: Q01DX009 (ip), vehicle: gum acacia",97 % of control
same,T/C,"dose: 18.0 mg/kg/injection, schedule: Q01DX009 (ip), vehicle: gum acacia",90 % of control
same,T/C,"dose: 100.0 mg/kg/injection, schedule: Q01DX009 (ip), vehicle: gum acacia",89 % of control
Ic1ncnc2c1ncn2C1CCCO1 (centres undefined),T/C,[2],118 % of control
same,T/C,[3],104 % of control
COC(=O)c1n[nH]c(C(C)C)c1N=NN(C)C,T/C,"dose: 37.5 mg/kg/injection, schedule: Q01DX009 (ip), vehicle: saline with Tween-80",110 % of control
same,T/C,"dose: 75.0 mg/kg/injection, schedule: Q01DX009 (ip), vehicle: saline with Tween-80",115 % of control
Cc1cc(OC(=O)c2ccc(N(C)C)cc2)ccc1[N+](=O)[O-],T/C,[4],92 % of control
same,T/C,[5],92 % of control
same,T/C,[2],88 % of control
COC(=O)C(CSC(c1ccccc1)(c1ccccc1)c1ccccc1)NC(=O)C(CSCc1ccccc1)NC(=O)CCNC(=O)OCc1ccccc1 (centres undefined) ({Cbz-βAla}-Cys(Bn)-Cys(Trt)-OMe; configuration not given here),T/C,[1],86 % of control
same,T/C,[4],87 % of control and 92 % of control
same,T/C,[5],89 % of control and 120 % of control
same,T/C,[6],167 % of control
COC(=O)C1(C(=O)OC)CCCCC1=O,T/C,[7],93 % of control
same,T/C,[8],94 % of control
COC(=O)C(=O)[C@@H](O)[C@H](O)[C@@H](O)CO,T/C,[7],94 % of control
same,T/C,[8],94 % of control
same,T/C,[9],100 % of control
Cc1cccc(N2CCN(CCC#N)CC2)c1,T/C,[10],102 % of control
same,T/C,[11],108 % of control
COc1ccc(CCNC(=S)NCCc2ccc(OC)c(OC)c2)cc1OC,T/C,[2],86 % of control
same,T/C,[3],92 % of control
same,T/C,[6],115 % of control
CN(Cc1ccccc1)Cc1ccccc1,T/C,[4],96 % of control
same,T/C,"dose: 25.0 mg/kg/injection, schedule: Q04DX003 (ip), vehicle: Klucel (hydroxypropylcellulose) (HPC)",100 % of control
same,T/C,[5],100 % of control
same,T/C,"dose: 50.0 mg/kg/injection, schedule: Q04DX003 (ip), vehicle: Klucel (hydroxypropylcellulose) (HPC)",97 % of control
same,T/C,[2],100 % of control
same,T/C,[7],97 % of control
O=C1CCCN1,T/C,[12],100 % of control
same,T/C,[13],94 % of control
Cc1ccc2ccccc2c1OC(C)C(=O)O (centres undefined),T/C,"dose: 25.0 mg/kg/injection, schedule: Q04DX003 (ip), vehicle: alcohol",100 % of control
same,T/C,"dose: 50.0 mg/kg/injection, schedule: Q01DX009 (ip), vehicle: alcohol",112 % of control
same,T/C,"dose: 50.0 mg/kg/injection, schedule: Q04DX003 (ip), vehicle: alcohol",100 % of control
same,T/C,"dose: 100.0 mg/kg/injection, schedule: Q01DX009 (ip), vehicle: alcohol",109 % of control
same,T/C,"dose: 100.0 mg/kg/injection, schedule: Q04DX003 (ip), vehicle: alcohol",88 % of control
COc1ccc(NC(=O)Oc2ccccc2-c2ccccc2)cc1,T/C,"dose: 8.0 mg/kg/injection, schedule: Q01DX009 (ip), vehicle: saline with Tween-80",100 % of control
same,T/C,[14],95 % of control
same,T/C,[15],223 % of control
same,T/C,"dose: 18.0 mg/kg/injection, schedule: Q01DX009 (ip), vehicle: saline with Tween-80",95 % of control
same,T/C,[10],199 % of control
same,T/C,[11],213 % of control
CC(=O)CCc1ccc(O)cc1,T/C,"dose: 100.0 mg/kg/injection, schedule: Q01DX009 (ip), vehicle: saline with Tween-80",90 % of control
same,T/C,[16],100 % of control
same,T/C,"dose: 400.0 mg/kg/injection, schedule: Q01DX009 (ip), vehicle: saline with Tween-80",92 % of control
COCCOCCN1CCN(CCCN2c3ccccc3Sc3ccc(C(F)(F)F)cc32)CC1,T/C,"dose: 0.31 mg/kg/injection, schedule: Q01DX009 (ip), vehicle: saline",106 % of control
same,T/C,"dose: 0.62 mg/kg/injection, schedule: Q01DX009 (ip), vehicle: saline",101 % of control
same,T/C,[17],108 % of control
same,T/C,"dose: 2.5 mg/kg/injection, schedule: Q01DX009 (ip), vehicle: saline",100 % of control
O=C(Nc1ccccc1)OCC(Cl)(Cl)Cl,T/C,[2],114 % of control
same,T/C,[3],108 % of control
same,T/C,[6],102 % of control
CNC1=C(N2CC2C)C(=O)C(NC)=C(N2CC2C)C1=O (centres undefined),T/C,[17],109 % of control
CS(=O)(=O)OCCN1CCC2(CC1)SSC1(CCN(CCOS(C)(=O)=O)CC1)S2,T/C,"dose: 3.13 mg/kg/injection, schedule: Q01DX009 (ip), vehicle: saline",106 % of control
same,T/C,[18],106 % of control
CCCCCCCCCCCC1=NCCN1,T/C,"dose: 3.0 mg/kg/injection, schedule: Q01DX009 (ip), vehicle: saline with Tween-80",94 % of control
same,T/C,"dose: 6.0 mg/kg/injection, schedule: Q01DX009 (ip), vehicle: saline with Tween-80",97 % of control
same,T/C,[14],88 % of control
CC/C(=C(/CC)c1ccc(O)cc1)c1ccc(O)cc1,T/C,"dose: 6.25 mg/kg/injection, schedule: Q01DX009 (ip), vehicle: saline with Tween-80",89 % of control
same,T/C,[15],89 % of control
same,T/C,[10],89 % of control and 102 % of control
same,T/C,[11],100 % of control
same,T/C,[16],97 % of control
C=CCN1CCCC1=O,T/C,"dose: 100.0 mg/kg/injection, schedule: Q04DX003 (ip), vehicle: saline",102 % of control
same,T/C,"dose: 200.0 mg/kg/injection, schedule: Q04DX003 (ip), vehicle: saline",95 % of control
same,T/C,"dose: 400.0 mg/kg/injection, schedule: Q04DX003 (ip), vehicle: saline",100 % of control
COc1ccc(C(CC(=O)c2ccc3c(c2)OCO3)C(=O)O)cc1OC (centres undefined),T/C,[2],96 % of control
same,T/C,[3],100 % of control
same,T/C,[6],100 % of control
NC(=S)c1ncn(C2OC(CO)C(O)C2O)c1N (centres undefined),T/C,"dose: 12.5 mg/kg/injection, schedule: Q01DX009 (ip), vehicle: saline",107 % of control
same,T/C,"dose: 25.0 mg/kg/injection, schedule: Q01DX009 (ip), vehicle: saline",105 % of control
same,T/C,[19],105 % of control
same,T/C,[12],102 % of control
same,T/C,"dose: 200.0 mg/kg/injection, schedule: Q01DX009 (ip), vehicle: saline",103 % of control
same,T/C,[13],95 % of control
CCC(CC)OCCN1CCN(CCCN2c3ccccc3Sc3ccc(C(F)(F)F)cc32)CC1,T/C,"dose: 0.5 mg/kg/injection, schedule: Q01DX009 (ip), vehicle: saline with Tween-80",109 % of control
same,T/C,"dose: 1.0 mg/kg/injection, schedule: Q01DX009 (ip), vehicle: saline with Tween-80",103 % of control
O=C(CCCC(=O)N1CCOCC1)N1CCOCC1,T/C,[7],97 % of control
same,T/C,[8],95 % of control
same,T/C,[9],92 % of control
FC(F)(F)c1ccc2c(c1)N(CCCN1CCN(CCC3OCCCO3)CC1)c1ccccc1S2,T/C,"dose: 0.78 mg/kg/injection, schedule: Q01DX009 (ip), vehicle: saline",116 % of control
same,T/C,"dose: 1.56 mg/kg/injection, schedule: Q01DX009 (ip), vehicle: saline",118 % of control
same,T/C,"dose: 3.12 mg/kg/injection, schedule: Q01DX009 (ip), vehicle: saline",90 % of control
same,T/C,[18],115 % of control
CCO/C=C1\SC(=S)N(c2cccc(OC)c2)C1=O,T/C,[1],93 % of control and 98 % of control
same,T/C,[4],98 % of control and 107 % of control
same,T/C,"dose: 35.0 mg/kg/injection, schedule: Q01DX009 (ip), vehicle: saline",98 % of control
same,T/C,[5],98 % of control
same,T/C,[19],100 % of control
same,T/C,"dose: 75.0 mg/kg/injection, schedule: Q01DX009 (ip), vehicle: saline",91 % of control
same,T/C,[2],100 % of control and 102 % of control
same,T/C,"dose: 265.0 mg/kg/injection, schedule: Q04DX003 (ip), vehicle: Klucel (hydroxypropylcellulose) (HPC)",101 % of control
same,T/C,[9],97 % of control
